Laboratory results published in patent publication US7374919B2 (GlycoZym ApS, priority 1998, dated 2008).
No end group written: not given here.

What was measured:
Assay type in all cases: biochemical
β4Gal-T2 = target: T1, β4Gal-T2 (Homo sapiens, UniProt O60909); test: β4Gal-T2 galactosyltransferase activity assay (soluble enzyme, media of infected Sf9 cells); details: for donor substrate utilisation by β4Gal-T2 (in words): with the acceptor substrates tested; for inhibition of β4Gal-T2 by high acceptor substrate concentrations: FIGS. 5A and 5B, to higher degree than bovine milk β4Gal-transferase and β4Gal-T3
T1 construct: An expression construct designed to encode amino acid residues 31-372 of β4Gal-T2 was prepared by RT-PCR; secretion signal of vector pAcGP67 (gp67 leader; own knowledge of the vector) (N); made in house; host or cells: Sf9 (Spodoptera frugiperda) cells, baculovirus; unpurified culture supernatant
T1 sequence (O60909 31-372): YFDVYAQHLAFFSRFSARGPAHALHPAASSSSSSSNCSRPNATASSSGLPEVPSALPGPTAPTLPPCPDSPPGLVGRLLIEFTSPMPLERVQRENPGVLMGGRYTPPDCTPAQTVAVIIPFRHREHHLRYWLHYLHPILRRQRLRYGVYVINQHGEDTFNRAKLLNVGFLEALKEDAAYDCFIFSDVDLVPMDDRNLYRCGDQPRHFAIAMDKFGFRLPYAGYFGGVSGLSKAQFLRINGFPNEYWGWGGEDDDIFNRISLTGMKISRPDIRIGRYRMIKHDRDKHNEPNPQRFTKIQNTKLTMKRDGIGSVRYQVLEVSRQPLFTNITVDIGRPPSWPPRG
Text: (§1) The PCR product were cloned into the BamHI site of pAcGP67 (Pharmingen), and the construct sequenced to verify correct insertion and sequence. The plasmid pAcGP67-β4Gal-T2-sol was co-transfected with Baculo-Goldä DNA (Pharmingen) as described previously (Bennett et al., 1996). Recombinant Baculo-virus were obtained after two successive amplifications in Sf9 cells grown in serum-containing medium, and titres of virus were estimated by titration in 24-well plates with monitoring of enzyme activities. Controls included pAcGP67-β4Gal-T3-sol (Almeida et al., 1997) and pAcGP67-GalNAc-T3-sol (Bennett et al., 1996).
(§2) Standard assays were performed in […] total reaction mixtures containing 25 mM Tris (pH 7.5), 10 mM MnCl2, 0.25% Triton X-100, […] UDP-[^14C]-Gal (2,300 cpm/nmol) (Amersham), and varying concentration of acceptor substrates (Sigma) (see Table I for structures). The soluble constructs were assayed with […] of culture supernatant from infected cells, whereas the full length construct was assayed with 1% Triton X-100 homogenates of washed cells. Bovine milk P1,4Gal-transferase (Sigma) was used as control.
Reaction products were quantified by Dowex-1 chromatography. […] The transfer of Gal was evaluated after precipitation by filtration through Whatman GF/C glass fiber filters.

Bovine milk β4Gal-T = target: T2, Bovine milk β4Gal-T (Bos taurus, UniProt P08037); test: Bovine milk β4Gal-transferase activity assay (control enzyme)
T2 construct: Purified bovine milk enzyme; purchased Sigma; host or cells: bovine milk
T2 sequence (P08037 79-402 limits assumed): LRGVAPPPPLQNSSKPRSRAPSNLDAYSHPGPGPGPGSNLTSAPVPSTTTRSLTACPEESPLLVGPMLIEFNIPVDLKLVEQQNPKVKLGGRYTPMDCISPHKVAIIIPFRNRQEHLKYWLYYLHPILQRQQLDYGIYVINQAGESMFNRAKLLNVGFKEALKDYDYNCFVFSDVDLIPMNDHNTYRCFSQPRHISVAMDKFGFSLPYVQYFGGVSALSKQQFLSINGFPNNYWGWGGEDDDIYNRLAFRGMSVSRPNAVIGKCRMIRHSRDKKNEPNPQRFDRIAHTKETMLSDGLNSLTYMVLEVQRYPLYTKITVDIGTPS
Procedure: as §2
(§3) Reaction products were quantified by Dowex-1 chromatography. Assays with hen egg Ovalbumin (Sigma), asialo-fetuin (Sigma), and asialo-agalacto-fetuin (Sigma, treated with bgalactosidase) were performed with the standard reaction mixture modified to contain […] UDP-Gal, 54 mM NaCl, and 0.5 mg Ovalbumin. The transfer of Gal was evaluated after precipitation by filtration through Whatman GF/C glass fiber filters.

β4Gal-T3 = target: T3, β4Gal-T3 (Homo sapiens, UniProt O60512); test: β4Gal-T3 galactosyltransferase activity assay (soluble enzyme, Sf9 media)
T3 construct: media from Sf9 cells expressing secreted forms of either β4Gal-T2 or -T3 were used as enzyme sources; secretion signal of vector pAcGP67 (gp67 leader; own knowledge of the vector) (N); made in house; host or cells: Sf9 cells, baculovirus; unpurified culture supernatant
Procedure: as §1, with “An expression construct designed to encode amino acid residues 31-372 of β4Gal-T2 was prepared by RT-PCR with mRNA from Colo205 cell line, using the primer pair EBER100FOR (5′-[…]; SEQ ID NO: 9) and EBER114 (5′-[…]; SEQ ID NO: 10) with BamH1 restriction sites (FIG. 2). The PCR” for “The PCR”
as §2, §3

[1] = substrate concentration 1 mM, media of infected Sf9 cells, background subtracted
[2] = substrate concentration 3 mM, media of infected Sf9 cells, background subtracted
[3] = substrate concentration 9 mM, media of infected Sf9 cells, background subtracted

T3 sequence (O60512 32-393 limits assumed): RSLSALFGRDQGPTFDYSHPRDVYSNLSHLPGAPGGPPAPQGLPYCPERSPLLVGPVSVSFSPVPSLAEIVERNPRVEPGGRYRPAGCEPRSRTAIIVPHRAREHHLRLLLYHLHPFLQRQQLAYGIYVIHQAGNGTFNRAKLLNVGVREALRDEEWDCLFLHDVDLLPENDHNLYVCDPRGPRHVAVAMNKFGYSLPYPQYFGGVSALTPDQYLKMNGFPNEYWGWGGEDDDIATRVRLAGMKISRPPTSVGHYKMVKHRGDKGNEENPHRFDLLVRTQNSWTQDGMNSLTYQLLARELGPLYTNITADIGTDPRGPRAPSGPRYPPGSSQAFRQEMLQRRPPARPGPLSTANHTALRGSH

Molecule	β4Gal-T2 activity with acceptor substrate (β4Gal-T2; [1]) [nmol/min/mL]	β4Gal-T2 activity with acceptor substrate (β4Gal-T2; [2]) [nmol/min/mL]	β4Gal-T2 activity with acceptor substrate (β4Gal-T2; [3]) [nmol/min/mL]	other results
CC(=O)N[C@H]1[C@H](OCc2ccccc2)O[C@H](CO)[C@H](O)[C@@H]1O [βGalNAc-benzyl]	–	–	–	acceptor substrate of soluble β4Gal-T2 activity (in words) (β4Gal-T2): not
CC(=O)N[C@H]1[C@H](Oc2ccc([N+](=O)[O-])cc2)O[C@H](CO)[C@@H](O)[C@@H]1O [p-Nph-β-D-GlcNAc]	3.0	2.3	0.9	–
α-lactalbumin	–	–	–	effect of α-lactalbumin on activity with GlcNAc (β4Gal-T2; β4Gal-T2, FIG. 4B): inhibited; concentration of α-lactalbumin to achieve maximum activity with Glc (β4Gal-T2; β4Gal-T2, glucose as acceptor): 0.4 mg/mL; effect of α-lactalbumin on activity with GlcNAc (Bovine milk β4Gal-T; bovine milk enzyme, FIG. 4B): inhibited; concentration of α-lactalbumin to achieve maximum activity with Glc (Bovine milk β4Gal-T; bovine milk enzyme, glucose as acceptor): 0.1 mg/mL
CC(=O)N[C@H]1[C@H](Oc2ccccc2[N+](=O)[O-])O[C@H](CO)[C@H](O)[C@@H]1O [o-Nph-β-D-GalNAc]	–	0.0	–	–
CC(=O)N[C@H]1[C@@H](OP(=O)(O)OP(=O)(O)OC[C@H]2O[C@@H](n3ccc(=O)[nH]c3=O)[C@H](O)[C@@H]2O)O[C@H](CO)[C@H](O)[C@@H]1O [UDP-GalNAc]	–	–	–	donor substrate utilisation by β4Gal-T2 (in words) (β4Gal-T2): did not utilise
Bz-*-D-GalNAc	–	0.0	–	–
COC1O[C@H](CO)[C@H](O)[C@H](O[C@@H]2O[C@H](CO)[C@H](O)[C@H](O)[C@H]2NC(C)=O)[C@H]1O (stereo partly drawn) [β-D-GlcNAc-(1-3)-β-D-Gal-1-OMe]	5.8	7.7	–	–
CC(=O)N[C@H]1[C@@H](OCc2ccccc2)O[C@H](CO)[C@@H](O)[C@@H]1O [Bz-α-D-GlcNAc]	0.4	1.1	1.7	–
*-D-GalNAc-1-(FAPSNYPAL) (not fully specified) [GalNAc-glycopeptide acceptor substrate]	–	–	–	β4Gal-T3 activity with acceptor substrate (β4Gal-T3; glycopeptides at 0.1 mM): 0.0 nmol/min/mL; β4Gal-T2 activity with acceptor substrate (β4Gal-T2; glycopeptides at 0.1 mM): 0.0 nmol/min/mL; Bovine milk β4Gal-T activity with acceptor substrate (Bovine milk β4Gal-T; glycopeptides at 0.1 mM): 0.0 nmol/min/µg
COC1OC(COC2OC(CO)C(O)C(O)C2NC(C)=O)C(O)C(O)C1O [β-D-CLcNAc-(1-6)-α-D-Man-1-OMe]	8.5	11.3	–	–
Cc1cc(=O)oc2cc(O[C@@H]3O[C@H](CO)[C@H](O)[C@H](O)[C@H]3O)ccc12 [4-Me-lumb-β-D-Gal]	–	0.0	–	–
Bz-2-(2-β-D-GlcNAc)-α-D-GlcNAc	9.9	2.6	1.3	–
CC(=O)N[C@H]1[C@@H](OP(=O)(O)OP(=O)(O)OC[C@H]2O[C@@H](n3ccc(=O)[nH]c3=O)[C@H](O)[C@@H]2O)O[C@H](CO)[C@@H](O)[C@@H]1O [UDP-GlcNAc]	–	–	–	donor substrate utilisation by β4Gal-T2 (in words) (β4Gal-T2): did not utilise
O=C[C@H](O)[C@@H](O)[C@H](O)[C@H](O)CO [glucose]	–	–	–	acceptor substrate of soluble β4Gal-T2 activity (in words) (β4Gal-T2): not an acceptor
O=[N+]([O-])c1ccccc1O[C@@H]1O[C@H](CO)[C@H](O)[C@H](O)[C@H]1O [o-Nph-β-D-Gal]	–	0.0	–	–
CC(=O)N[C@@H]1[C@@H](O)[C@H](O)[C@@H](CO)O[C@H]1Sc1ccc([N+](=O)[O-])cc1 [p-Nph-1-thio-β-D-GlcNAc]	1.2	1.6	0.2	–
β-D-GlcNAC-1-(FAPGSYPAL) (also: O-linked β-D-GlcNAc, site not given here) [synthetic O-linked βGlcNAc-glycopeptide]	–	–	–	β4Gal-T3 activity with acceptor substrate (β4Gal-T3; glycopeptides at 0.1 mM): 0.9 nmol/min/mL; β4Gal-T2 activity with acceptor substrate (β4Gal-T2; glycopeptides at 0.1 mM): 1.3 nmol/min/mL
Lc3Cer	–	–	–	acceptor substrate of soluble β4Gal-T2 activity (in words) (β4Gal-T2): utilised
CC(=O)N[C@H]1[C@H](OCc2ccccc2)O[C@H](CO)[C@@H](O)[C@@H]1O [Bz-β-D-GlcNAc]	6.8	3.6	1.5	β4Gal-T3 activity with acceptor substrate (β4Gal-T3; β-D-GlcNAc-1-Bz at 2 mM): 3.9 nmol/min/mL; inhibition of β4Gal-T2 by high acceptor substrate concentrations (β4Gal-T2): inhibited at high concentrations; Km (β4Gal-T2; β4Gal-T2, read-out: apparent Km for acceptor substrate): 160 µM; β4Gal-T2 activity with acceptor substrate (β4Gal-T2; β-D-GlcNAc-1-Bz at 0.25 mM): 3.5 nmol/min/mL; Bovine milk β4Gal-T activity with acceptor substrate (Bovine milk β4Gal-T; β-D-GlcNAc-1-Bz at 0.625 mM): 3.4 nmol/min/µg
Asialo-agalacto-Fetuin: glycoprotein acceptor; asialo-fetuin (Sigma) treated with bgalactosidase	–	–	–	β4Gal-T3 activity with acceptor substrate (β4Gal-T3; glycoproteins at 10 mg/ml): 0.7 nmol/min/mL; β4Gal-T2 activity with acceptor substrate (β4Gal-T2; glycoproteins at 10 mg/ml): 2.8 nmol/min/mL; Bovine milk β4Gal-T activity with acceptor substrate (Bovine milk β4Gal-T; glycoproteins at 10 mg/ml): 0.8 nmol/min/µg
CC(=O)N[C@H]1C(O)O[C@H](CO)[C@@H](O)[C@@H]1O (stereo partly drawn) [D-GlcNAc]	1.4	3.2	4.8	inhibition of β4Gal-T2 by high acceptor substrate concentrations (β4Gal-T2): inhibited at high concentrations
CC(=O)N[C@H]1[C@H](Oc2ccc3c(C)cc(=O)oc3c2)O[C@H](CO)[C@@H](O)[C@@H]1O [4-Me-lumb-β-D-GlcNAc]	0.8	0.6	0.4	–
Asialo-Fetuin: glycoprotein acceptor, asialo-fetuin (Sigma)	–	–	–	β4Gal-T3 activity with acceptor substrate (β4Gal-T3; glycoproteins at 10 mg/ml): 0.0 nmol/min/mL; β4Gal-T2 activity with acceptor substrate (β4Gal-T2; glycoproteins at 10 mg/ml): 0.2 nmol/min/mL; Bovine milk β4Gal-T activity with acceptor substrate (Bovine milk β4Gal-T; glycoproteins at 10 mg/ml): 0.1 nmol/min/µg
CC(=O)N[C@H]1[C@H](Oc2ccc3c(C)cc(=O)oc3c2)O[C@H](CO)[C@H](O)[C@@H]1O [4-Me-lumb-β-D-GalNAc]	–	0.0	–	–
CC(=O)N[C@H]1[C@@H](Oc2ccccc2[N+](=O)[O-])O[C@H](CO)[C@@H](O)[C@@H]1O [o-Nph-α-D-GlcNAc]	0.4	0.8	1.5	–
